Measured values reported in patent publication US10660878B2, “Methods of treating dementia and pharmaceutical compositions thereof” (H. Lundbeck A/S, priority 2012, dated 2020).
Entries after “also recorded” stand apart in the source; their conditions may differ. Where two headings read alike, the source gives them in different places.

Experiments:
[1] = Phase I PK study in the elderly and AD study 12936A pharmacokinetics; assay type: in vivo, human; conditions: for half-life: human, plasma, read-out: elimination half life (converted)
Method: In total, the dataset used in the popPK model consisted of 265 patients. The doses administered, single or multiple, were in the range of 9.0-300 mg.

[2] = test system: patients with Alzheimer's disease; experiment: Study 12936A, adjunctive treatment to donepezil in Alzheimer's disease; assay type: in vivo, human; conditions: 90 mg daily (3×30 mg) plus 10 mg/day of donepezil
Source text: In 2012, it was reported that a randomized, double blind, placebo controlled trial conducted in Europe, Canada and Australia met its primary endpoint in the treatment of AD.
An issue for that dose selection was to ensure that the maximum exposure level fell under the maximum exposure limit which had been established from non-clinical toxicology studies. Accordingly, a fixed dose of three times in the study was introduced.
(§1) The AD study cited in the Background section is referred to in this application as study 12936A. The schizophrenia study cited in the Background section is referred to in this application as study 12450A.

[3] = Plasma concentration of Compound I (PK) in PET study Part B; assay type: in vivo, human; conditions: P2 scans, post-dose duration 10-51 hours
Method: Dosing schemes include 5 mg (5Q; Part B4) once daily or QD, 30 mg QD (30Q; Part B3), 30 mg b.i.d. (30B; Part B2), and 60 mg b.i.d (60B; Part B1). […] Model 2 was supported over Model 1 in Pu, CN, and vS by Akaike information criterion (AIC; The smaller the AIC value the better the fit) (Akaike 1974) and F-test comparing residual sums of squares (RSS) of the two models (Table 1).

[4] = test system: patients with schizophrenia; experiment: Study 12450A, adjunctive treatment to risperidone in schizophrenia; assay type: in vivo, human; conditions: 120 mg/day BID
Method: Overall improvement in schizophrenia symptoms was assessed by using the Positive and Negative Syndrome Scale (PANSS) total score.
as §1

5-HT6 receptor [5] = biological target: T1, 5-HT6 receptor (Homo sapiens, UniProt P50406); experiment: PET 5-HT6 receptor occupancy after multiple oral doses, [^11C]LuPET radioligand (Part B); assay type: in vivo; parameters: from tissue; host or cells: brain of living healthy male subjects (putamen, caudate nucleus, ventral striatum), in vivo PET
T1 sequence (P50406 whole entry): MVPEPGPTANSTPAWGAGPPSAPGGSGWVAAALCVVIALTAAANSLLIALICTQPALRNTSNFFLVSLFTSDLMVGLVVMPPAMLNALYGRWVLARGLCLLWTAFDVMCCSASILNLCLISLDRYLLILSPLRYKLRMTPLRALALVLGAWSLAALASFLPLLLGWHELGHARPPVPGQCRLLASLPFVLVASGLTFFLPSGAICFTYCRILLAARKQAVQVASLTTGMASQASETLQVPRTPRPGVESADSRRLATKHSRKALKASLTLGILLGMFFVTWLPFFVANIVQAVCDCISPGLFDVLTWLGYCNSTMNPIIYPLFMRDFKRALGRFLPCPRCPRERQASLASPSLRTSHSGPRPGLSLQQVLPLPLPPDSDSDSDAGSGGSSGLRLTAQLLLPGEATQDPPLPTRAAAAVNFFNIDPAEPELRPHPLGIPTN
Method: (§2) As the radioligand has not previously been dosed to humans it was initially evaluated in the human brain to identify an optimal method for quantification and validate the radioligand as a PET tracer (Part A).
Eight healthy male subjects (Age: 30.6±7.7 years; range: 22-44 years) participated in Part A, and sixteen healthy male subjects (Age: 32.3±7.6 years; range: 21-44 years) participated in Part B of this study.
(§3) PET studies were performed on the GE Advance Tomograph (GE Medical Systems, Waukesha, Wis., USA). Subjects had one venous catheter for the radioligand injection, and one arterial catheter to obtain arterial blood samples for the determination of radioactivity in plasma. Then, subjects were positioned in the scanner with the head restrained with a custom-made thermoplastic mask to reduce the head motion during PET data acquisition. Then, a 10 minute attenuation scan was performed using a rotating ^68Ge source for attenuation correction. Dynamic PET acquisition was then performed in a three-dimensional mode for 90 min following an intravenous bolus injection of [^11C]LuPET. A total of 30 PET frames were obtained (4×15, 4×30, 3×60, 2×120, 5×240, and 12×300 seconds). […] Selected samples taken at 0, 5, 10, 30, 45, 60, and 90 min were analyzed by HPLC for the presence of the radioligand and its radioactive metabolites as described elsewhere (Hilton et al., 2000).
Volumes of interest (VOIs): Cortical VOIs were automatically defined using Freesurfer software and combined into standard regions including: frontal (Fr), temporal (Tp), parietal (Pa), and occipital (Oc) cortices, fusiform gyms (Fs), cingulate (Cg), and insula (In). Subcortical regions were defined with FIRST software (Patenaude et al., 2011) and manually adjusted on individual MRIs. Subcortical regions included putamen (Pu), caudate nucleus (CN), ventral striatum (vS), globus pallidus (GP), thalamus (Th), hippocampus (Hp), and amygdala (Am). VOIs were transferred from MRI to PET spaces following MRI-to-PET coregistration parameters given by SPMS (Ashbumer J, Friston 2003; Macs et al., 1997) to obtain time-activity curves (TACs) of regions. A total of 25 regions per scan were employed for methodological evaluations (Part A) while occupancy calculation was limited to Pu, CN, and vS (Part B).
Derivation of PET outcome variables: Primary PET outcome variables are total distribution volume, VT and binding potential, BPND (=fND·Bavail/KD, where fND refers to the fraction of non-displaceable compartment, Bavail stands for the density of available (unoccupied) 5-HT6 receptors, and KD stands for the dissociation constant; Innis et al., 2007).
A set of standard plasma input methods were employed to identify the optimal method for derivation of regional distribution volume (VT) for [^11C]LuPET including, a one tissue compartmental model (OTCM) with three parameters (K1, and k2′; See Koeppe et al., 1991 for the definitions, and v0, tissue vascular volume), two tissue compartmental models with five parameters (K1, k2, k3, k4, and v0; See Innis et al., 2007 for the definitions), without and with constraining the K1-k2 ratio (non-displaceable distribution volume, VND (Abi-Dargham et al., 1994) to the cerebellum estimate (TTCM-UC and TTCM-C, respectively), and the plasma reference graphical analysis (PRGA; Logan et al., 1990). In TTCM-UC and TTCM-C, BPND was given as the k3-k4 ratio.
In addition, tissue reference methods, namely the multilinear reference tissue method with 2 parameters (MRTM2; Ichise et al., 2002) and reference tissue graphical analysis (RTGA; Logan et al., 1996) were applied.
Akaike information criteria (AIC; Akaike 1974; Burnham and Anderson 2004) was used to examine goodness of fit for compartmental models and for the examination of occupancy-PK relationships using Equation 3. Results

5-HT6 receptor [6] = biological target: T1, 5-HT6 receptor; experiment: PK/PD Emax model of 5-HT6 occupancy fitted to PET data; assay type: in vivo; parameters: from tissue; host or cells: brain of living healthy male subjects (putamen, caudate nucleus, ventral striatum), in vivo PET; conditions: caudate nucleus region; non-linear mixed effect modelling
Method: In total three PET scans were performed per subject, the first at baseline, the second around tmax on last day of dosing and the last in the interval 10-51 hours post dose on the last day of dosing.
In order to allow for estimation of the inter-subject variability in the occupancy, non-linear mixed effect modelling was performed where the inter-subject variability was modelled as an exponential term on EC50.

[7] = Evaluation of [^11C]LuPET as PET tracer in the human brain; assay type: in vivo
Method: as §2
as §3, with “2000). […]” for “2000).”

5-HT6 receptor [8] = biological target: T1, 5-HT6 receptor; experiment: Displacement of [^11C]LuPET binding by olanzapine, PET (Part A); conditions: one dose of 10 mg, scan 5 hours after dose; across brain regions
Source text: In Part A, baseline scans were repeated on the same day (n=1) or separate days (n=7) ranging from 1 to 18 days apart to test reproducibility of PET outcome variables.
[formula] where superscripts indicate BPND of baseline (B) and post-dose (D), respectively.

[9] = Caudate nucleus (CN), PRGA, 3H + P2 pooled
[10] = Caudate nucleus (CN), PRGA, 3H scans
[11] = Caudate nucleus (CN), PRGA, P2 scans
[12] = Caudate nucleus (CN), RTGA, 3H + P2 pooled
[13] = Caudate nucleus (CN), RTGA, 3H scans
[14] = Caudate nucleus (CN), RTGA, P2 scans
[15] = Putamen (Pu), PRGA, 3H + P2 pooled
[16] = Ventral striatum (vS), PRGA, 3H + P2 pooled
[17] = Ventral striatum (vS), PRGA, 3H scans
[18] = Ventral striatum (vS), PRGA, P2 scans

With `Fc1ccc2c(CCNCc3cccc(OCC(F)(F)C(F)F)c3)c[nH]c2c1` [Compound I, N-[2-(6-fluoro-1H-indol-3-yl)ethyl]-3-(2,2,3,3-tetrafluoropropoxy)benzylamine] the clearance ([1]; elderly compared to younger subjects) was “reduced”, the half-life ([1]; elderly population) was ~19 h and the half-life ([1]; young healthy subjects) was ~12 h. For the same compound, the “secondary endpoints (global impression, daily living activities) vs donepezil treated patients” value [2] was “positive results”, the “cognitive function (ADAS-cog) vs placebo plus donepezil” value ([2]; 278 patients) was “significantly improved” and the “PK range (plasma concentration)” value [3] was 0.54 to 204 ng/mL. The “PANSS total score vs placebo” value [4] was “did not offer any treatment advantage over placebo”, the “overall neurocognitive performance (BACS composite Z-score, PANSS cognitive subscale scores) vs placebo” value [4] was “did not appear to be any treatment advantage over placebo” and the receptor occupancy at 30 mg (5-HT6 receptor [5]; 30 mg BID, at Cmax) was > 85%. The receptor occupancy at 30 mg (5-HT6 receptor [5]; 30 mg QD, at Cmax) was ~80%, the receptor occupancy at 60 mg (5-HT6 receptor [5]; 60 mg BID, at Cmax) was > 90% and the “PK values predicted to generate 80% occupancy” value (5-HT6 receptor [5]; CN and vS by PRGA) was “about 120 ng/mL”. The “PK values predicted to generate 80% occupancy” value (5-HT6 receptor [5]; CN by RTGA) was “about 100 ng/mL”, the “80% RO (PK predicted to exert 80% occupancy)” value (5-HT6 receptor [5]; [9]) was 51.1 ng/mL and the Omax (5-HT6 receptor [5]; [9]) was 91.3%. For the same compound, the “80% RO (PK predicted to exert 80% occupancy)” value (5-HT6 receptor [5]; [10]) was 50.1 ng/mL, the Omax (5-HT6 receptor [5]; [10]) was 90.3% and the “80% RO (PK predicted to exert 80% occupancy)” value (5-HT6 receptor [5]; [11]) was 48.0 ng/mL. The Omax (5-HT6 receptor [5]; [11]) was 93.9%, the “80% RO (PK predicted to exert 80% occupancy)” value (5-HT6 receptor [5]; [12]) was 108.4 ng/mL and the Omax (5-HT6 receptor [5]; [12]) was 85.7%. For the same compound, the “80% RO (PK predicted to exert 80% occupancy)” value (5-HT6 receptor [5]; [13]) was 102.8 ng/mL, the Omax (5-HT6 receptor [5]; [13]) was 85.2% and the “80% RO (PK predicted to exert 80% occupancy)” value (5-HT6 receptor [5]; [14]) was 101.5 ng/mL. The Omax (5-HT6 receptor [5]; [14]) was 87.1%, the “PK values predicted to generate 80% occupancy” value (5-HT6 receptor [5]; Pu by PRGA) was “about 50 ng/mL” and the “80% RO (PK predicted to exert 80% occupancy)” value (5-HT6 receptor [5]; [15]) was 131.7 ng/mL. The Omax (5-HT6 receptor [5]; [15]) was 83.2%, the “80% RO (PK predicted to exert 80% occupancy)” value (5-HT6 receptor [5]; Putamen (Pu), PRGA, 3H scans) was 137.8 ng/mL and the Omax (5-HT6 receptor [5]; Putamen (Pu), PRGA, 3H scans) was 82.8%. For the same compound, the “80% RO (PK predicted to exert 80% occupancy)” value (5-HT6 receptor [5]; Putamen (Pu), PRGA, P2 scans) was 116.7 ng/mL, the Omax (5-HT6 receptor [5]; Putamen (Pu), PRGA, P2 scans) was 83.8% and the Omax (5-HT6 receptor [5]; Putamen (Pu), RTGA, 3H + P2 pooled) was 77.3%. For the same compound, the Omax (5-HT6 receptor [5]; Putamen (Pu), RTGA, 3H scans) was 7.5%, the Omax (5-HT6 receptor [5]; Putamen (Pu), RTGA, P2 scans) was 76.6% and the “80% RO (PK predicted to exert 80% occupancy)” value (5-HT6 receptor [5]; [16]) was 121.0 ng/mL. The Omax (5-HT6 receptor [5]; [16]) was 86.0%, the “80% RO (PK predicted to exert 80% occupancy)” value (5-HT6 receptor [5]; [17]) was 66.5 ng/mL and the Omax (5-HT6 receptor [5]; [17]) was 85.5%. For the same compound, the “80% RO (PK predicted to exert 80% occupancy)” value (5-HT6 receptor [5]; [18]) was 133.5 ng/mL, the Omax (5-HT6 receptor [5]; [18]) was 89.7% and the Omax (5-HT6 receptor [5]; Ventral striatum (vS), RTGA, 3H + P2 pooled) was 76.5%. The Omax (5-HT6 receptor [5]; Ventral striatum (vS), RTGA, 3H scans) was 78.2%, the Omax (5-HT6 receptor [5]; Ventral striatum (vS), RTGA, P2 scans) was 72.1% and the “5-HT6 receptor occupancy 24 hours post dose” value (5-HT6 receptor [5]; after multiple dosages, 24 hours post dose vs Cmax) was “only decreased slightly; also recorded: maintained”. The Omax (5-HT6 receptor [5]; oral administration, overall study estimate based on Pu and CN) was “about 90%” and the “Emax (maximal occupancy)” value (5-HT6 receptor [6]) was 91%.
With `[11CH3]N1CCN(c2cccc3cc(S(=O)(=O)c4ccccc4)cnc23)CC1` [[^11C]LuPET] the “k2 (brain-to-blood clearance rate constant)” value ([7]; cerebellum (Cb), mean across baseline scans, TTCM-UC) was 0.076 min⁻¹ and the “distribution volume VT” value ([7]; striatum target regions) was ~10 mL/mL.
In the case of `Cc1cc2c(s1)Nc1ccccc1N=C2N1CCN(C)CC1` [olanzapine], the “displacement of binding of [^11C]LuPET” value (5-HT6 receptor [8]) is reported as “about 80%”.
